In article PMC6207618, “The GbsR Family of Transcriptional Regulators: Functional Characterization of the OpuAR Repressor” (Frontiers in Microbiology, 2018):
“Also recorded” adds a separate entry of the source.

Legend:
B. infantis NRRL B-14911 = assay: Osmostress protection assay of B. infantis; type: cell-based, Bacillus infantis; details: basal medium with 0.9 M NaCl, 1 mM osmostress protectant, 29 h, 37°C
Procedure: (§1) Bacterial strains were propagated in Luria–Bertani (LB) liquid media at 37°C or plated on LB agar plates. The B. infantis strain NRRL B-14911 was grown in MOPS-buffered basal medium [50 mM MOPS (pH 7.5), 50 mM MgSO4, 10 mM KCl, 10 mM CaCl2, 190 mM NH4Cl, 0.33 mM K2HPO4, 0.1 mM FeSO4] supplemented with 0.5% glucose (wt/vol) as a carbon source, 0.4% casamino acids (wt/vol), 5 ml l^-1 vitamin solution A (7.8 mg l^-1 biotin, 15.6 mg l^-1 nicotinic acid, and 15.6 mg l^-1 lipoic acid; pH adjusted to 7.5), and 5 ml l^-1 vitamin solution B (15.6 mg l^-1 pantothenic acid, 15.6 mg l^-1 pyridoxine-HCl, 15.6 mg l^-1 thiamine, 15.6 mg l^-1 p-aminobenzoic acid, and 0.32 mg l^-1 cobalamin) ([Gonzalez et al., 1997]). In main cultures used for osmostress protection assays, casamino acids were left out from the growth medium. The osmolarity of growth media was adjusted by the addition of NaCl from a 5 M NaCl stock solution. If desired, osmostress protectants were added to the medium of B. infantis NRRL B-14911 cultures at a final concentration of 1 mM. For growth experiments, liquid cultures of B. infantis NRRL B-14911 were grown in 100-ml Erlenmeyer flasks containing 20-ml of medium in a water bath set to 37°C with vigorous shaking (set to 220 rpm). Pre-cultures of strains were propagated to mid-exponential growth phase in basal medium (with 0.4% casamino acids) and were then used to inoculate fresh basal medium (without casamino acids) to an optical density at 578 nm (OD578) of 0.1. Liquid cultures of B. subtilis strains were grown at 37°C in Spizizen’s minimal medium (SMM) ([Harwood and Archibald, 1990]) with 0.5% glucose as carbon source and a solution of trace elements ([Harwood and Cutting, 1990]). L-Tryptophan (20 mg l^-1) and L-phenylalanine (18 mg l^-1) were added to SMM-derived growth media to satisfy the auxotrophic needs of the B. subtilis strain JH642 (trpC2 pheA1) ([Smith et al., 2014]) and its derivatives (Supplementary Table S1). Cultures (20-ml in 100-ml Erlenmeyer flasks) of B. subtilis strains were inoculated from exponentially growing pre-cultures in SMM to an OD578 of 0.1 and were incubated in a shaking water bath (set to 220 rpm) at 37°C. If needed, the osmolarity of the growth medium was increased by the addition of NaCl (from 5 M stock solutions prepared in H2O). Compatible solutes were filter sterilized and added to the growth medium of B. subtilis strains from 100 mM stock solutions to a final concentration of 1 mM unless otherwise explicitly stated in the text.
(A) Influence of increasing salinity on the growth of B. infantis NRRL B-14911. Cultures were grown in basal medium adjusted to the indicated salinity. Growth yields were measured after 30 h of incubation at 37°C. (B) Osmostress protection assays were carried out in basal medium supplemented with 0.9 M NaCl and in the presence of 1 mM of the indicated osmostress protectants. After 29 h of incubation at 37°C, growth yields were determined by measuring the OD578 of the cultures. (C) Substrate specificity of the B. infantis OpuA transporter. The opuA operon (and its flanking opuAR gene) of B. infantis NRRL B-14911 was heterologously expressed in a derivative of B. subtilis JH642, lacking all uptake system for compatible solutes except for the L-proline-specific OpuE transporter ([Hoffmann and Bremer, 2017]; [Teichmann et al., 2017]). Growth assays were conducted in minimal medium (SMM), either in the absence or presence of 1.2 M NaCl and 1 mM of the indicated osmostress protectants. After 18 h of incubation at 37°C, the optical densities (OD578) of the cultures were measured. The given values are the means and standard deviations of four independent biological replicates.
Next, we studied the possible osmostress protection of B. infantis NRRL B-14911 by various exogenously provided compatible solutes.

[1] = test system: B. infantis OpuA transporter; assay: Osmostress protection growth assay, B. infantis opuA operon expressed in B. subtilis strain CAB2; type: cell-based, Bacillus infantis; details: for Osmostress protection (growth yield OD578): B. subtilis CAB2, SMM with 1.2 M NaCl, 1 mM osmostress protectant, 18 h, 37°C; for Substrate of / import via the B. infantis OpuA transporter: inferred from osmostress protection of B. subtilis CAB2, 1.2 M NaCl, 1 mM
Procedure: as §1
For the heterologous expression of the B. infantis NRRL B-14911 opuA operon (opuAA-opuAB-opuAC) in B. subtilis, a 3826-bp DNA fragment including the coding region of the opuA operon and the adjacent opuAR regulatory gene was generated by PCR using primers CA3-opuARA fwd and CA3-opuARA rev (Supplementary Table S2). […] Plasmid pX and its recombinant derivatives allow the stable insertion of genes into the B. subtilis chromosome as a single copy into the non-essential amyE locus via a double homologous recombination event via amyE sequences present on both the plasmid and the chromosome ([Kim et al., 1996]). Insertion of plasmid pX, or its recombinant derivatives, into the B. subtilis chromosome at the amyE gene can be selected for on agar plates containing the antibiotic chloramphenicol (final concentration: 5 μg ml^-1) and the subsequently scoring of the AmyE negative phenotype of the strains on LB plates containing 1% starch ([Harwood and Cutting, 1990]). Linearized plasmid DNA of pCA-opuARA was used to transform the B. subtilis chassis strain TMB118 [Δ(opuA::tet)3 Δ(opuC::spc)3 Δ(opuD::neo)2 Δ(opuB::erm)3] ([Teichmann et al., 2017]) in which only the proline-specific osmostress OpuE transporter ([von Blohn et al., 1997]) is present. The resulting strain was CAB2 (Supplementary Table S1). B. subtilis mutants carrying chromosomal deletions of the yvaV and opcR genes were constructed using long-flanking region PCR ([Kuwayama et al., 2002]).

SMILES | Osmostress protection (growth yield OD578) (B. infantis NRRL B-14911) | Osmostress protection (growth yield OD578) [1] | Substrate of / import via the B. infantis OpuA transporter [1]
C[N+](C)(C)CCC(=O)[O-] [homobetaine] | moderate level of osmostress protection | protected | 
C[N+](C)(C)CCO [choline] | not osmostress protective; also recorded: does not serve as an osmostress protectant |  | not imported; also recorded: not a substrate
C[N+]1(C)CCC[C@H]1C(=O)[O-] [proline betaine] | substantial level of osmostress protection | protected | major substrates
C[N+](C)(C)CC(=O)[O-] [glycine betaine] | substantial level of osmostress protection | protected | major substrates
C[S+](C)CCC(=O)[O-] [DMSP, dimethylsulfoniopropionate] | moderate level of osmostress protection | protected | good substrate
CN(C)CC(=O)O [DMG, dimethlyglycine] | moderate level of osmostress protection | at a reduced level | 
